Source: patent publication US20060069132A1, “Azolecarboxamide herbicides” (priority 2004, published 2006)
Read-outs that look alike come from different tables or passages of the source.

Legend:
[1] = system: barnyardgrass; assay: Test A pre-/postemergence herbicide test; assay type: in vivo, Echinochloa crus-galli; conditions: Echinochloa crus-galli, 240 h; for pest or weed control at 500 g/ha: 500 g ai/ha; for pest or weed control at 2000 g/ha: 2000 g ai/ha
Method in brief: (§1)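 Greenhouse injury scoring (0–100, complete control = 100) at approximately ten days follows simultaneous pre- and postemergence application. Soil received a directed spray after seeding; seedlings of 2–10 cm at the one- to two-leaf stage were sprayed to runoff.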

[2] = system: large crabgrass; assay: Test A pre-/postemergence herbicide test; assay type: in vivo, Digitaria sanguinalis; conditions: Digitaria sanguinalis, 240 h; for pest or weed control at 500 g/ha: 500 g ai/ha; for pest or weed control at 2000 g/ha: 2000 g ai/ha
Method in brief: as §1

[3] = system: redroot pigweed; assay: Test A pre-/postemergence herbicide test; assay type: in vivo, Amaranthus retroflexus; conditions: Amaranthus retroflexus, 240 h; for pest or weed control at 500 g/ha: 500 g ai/ha; for pest or weed control at 2000 g/ha: 2000 g ai/ha
Method in brief: as §1

[4] = system: bermudagrass; assay: Test C pre-/postemergence herbicide test; assay type: in vivo, Cynodon dactylon; conditions: for pest or weed control at 250 g/ha: 250 g ai/ha; for pest or weed control at 125 g/ha: 125 g ai/ha
Method in brief: (§2)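 Pre/post spray; non-phytotoxic solvent + surfactant. Post-timing 1–4 leaves, 2–18 cm. Read-out: visual % control vs untreated, day 12–14, greenhouse.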

[5] = system: woolly cupgrass; assay: Test C pre-/postemergence herbicide test; assay type: in vivo, Eriochloa villosa; conditions: for pest or weed control at 250 g/ha: 250 g ai/ha; for pest or weed control at 125 g/ha: 125 g ai/ha
Method in brief: as §2

[6] = system: giant foxtail; assay: Test C pre-/postemergence herbicide test; assay type: in vivo, Setaria faberi; conditions: for pest or weed control at 250 g/ha: 250 g ai/ha; for pest or weed control at 125 g/ha: 125 g ai/ha
Method in brief: as §2

[7] = system: goosegrass; assay: Test C pre-/postemergence herbicide test; assay type: in vivo, Eleusine indica; conditions: for pest or weed control at 125 g/ha: 125 g ai/ha
Method in brief: as §2

[8] = system: common ragweed; assay: Test C pre-/postemergence herbicide test; assay type: in vivo, Ambrosia elatior; conditions: for pest or weed control at 125 g/ha: 125 g ai/ha
Method in brief: as §2

[9] = system: common (oilseed) sunflower; assay: Test C pre-/postemergence herbicide test; assay type: in vivo, Helianthus annuus; conditions: Helianthus annuus, pre-emergence, read-out: Plant response rating, Sunflower
Method in brief: as §2

[10] = system: smallflower umbrella sedge; assay: Test C flooded paddy test; assay type: in vivo, Cyperus difformis; conditions: Cyperus difformis
[11] = post-emergence, Postemergence, 0 to 100 scale, 0 no effect, 100 complete control, read-out: Plant response rating, Barnyardgrass
[12] = post-emergence, Postemergence, 0 to 100 scale, 0 no effect, 100 complete control, read-out: Plant response rating, Crabgrass, Large
[13] = post-emergence, Postemergence, 0 to 100 scale, 0 no effect, 100 complete control, read-out: Plant response rating, Pigweed

Compound: CCOC(=O)c1cccc(NC(=O)c2cc(C(C)(C)C)nn2CC)c1 [Compound 80, ethyl 3-[[[3-(1,1-dimethylethyl)-1-ethyl-1H-pyrazol-5-yl]carbonyl]-amino]benzoate]
- pest or weed control at 500 g/ha [1, 11]: 90%
- pest or weed control at 2000 g/ha [1, 11]: 90%
- pest or weed control at 500 g/ha ([1]; pre-emergence, Preemergence, visual rating, 0 to 100 scale (0 no effect, 100 complete control), read-out: Barnyardgrass plant response rating): 10%
- pest or weed control at 2000 g/ha ([1]; pre-emergence, Preemergence, 0 to 100 scale, 0 no effect, 100 complete control, read-out: Barnyardgrass plant response rating): 35%
- pest or weed control at 500 g/ha [2, 12]: 70%
- pest or weed control at 2000 g/ha [2, 12]: 90%
- pest or weed control at 500 g/ha ([2]; pre-emergence, Preemergence, visual rating, 0 to 100 scale (0 no effect, 100 complete control), read-out: Crabgrass, Large plant response rating): 10%
- pest or weed control at 2000 g/ha ([2]; pre-emergence, Preemergence, 0 to 100 scale, 0 no effect, 100 complete control, read-out: Crabgrass, Large plant response rating): 30%
- pest or weed control at 500 g/ha [3, 13]: 100%
- pest or weed control at 2000 g/ha [3, 13]: 100%
- pest or weed control at 500 g/ha ([3]; pre-emergence, Preemergence, visual rating, 0 to 100 scale (0 no effect, 100 complete control), read-out: Pigweed plant response rating): 70%
- pest or weed control at 2000 g/ha ([3]; pre-emergence, Preemergence, 0 to 100 scale, 0 no effect, 100 complete control, read-out: Pigweed plant response rating): 90%
- Plant response rating (0 = no effect, 100 = complete control), Bermudagrass ([4]; 62 g ai/ha, preemergence): 10
- pest or weed control at 250 g/ha ([4]; Cynodon dactylon, post-emergence, 312 h, Postemergence, scale 0 to 100, read-out: Bermudagrass plant response rating): 100%
- pest or weed control at 125 g/ha ([4]; Cynodon dactylon, post-emergence, 312 h, postemergence, scale 0 to 100, read-out: Plant response rating, Bermudagrass): 100%
- pest or weed control at 31 g/ha ([4]; Cynodon dactylon, pre-emergence, 312 h, 31 g ai/ha, preemergence, scale 0 to 100, read-out: Plant response rating, Bermudagrass): 0%
- pest or weed control at 125 g/ha ([4]; Cynodon dactylon, pre-emergence, 312 h, scale 0 (no effect) to 100 (complete control), visual, 12 to 14 days, read-out: Plant response rating, Bermudagrass): 10%
- pest or weed control at 250 g/ha ([4]; Cynodon dactylon, pre-emergence, 312 h, scale 0 to 100 (0 no effect, 100 complete control), visual, 12 to 14 days, read-out: Plant response rating, Bermudagrass): 10%
- Plant response rating (0 = no effect, 100 = complete control), Cupgrass, Woolly ([5]; 62 g ai/ha, preemergence): 0
- pest or weed control at 250 g/ha ([5]; Eriochloa villosa, post-emergence, 312 h, Postemergence, scale 0 to 100, 0 no effect, 100 complete control, read-out: Plant response rating, Cupgrass, Woolly): 90%
- pest or weed control at 125 g/ha ([5]; Eriochloa villosa, post-emergence, 312 h, postemergence, scale 0 to 100, read-out: Plant response rating, Cupgrass, Woolly): 90%
- pest or weed control at 62 g/ha ([5]; Eriochloa villosa, post-emergence, 312 h, postemergence, 62 g ai/ha, scale 0 to 100, read-out: Plant response rating, Cupgrass, Woolly): 80%
- pest or weed control at 31 g/ha ([5]; Eriochloa villosa, pre-emergence, 312 h, 31 g ai/ha, preemergence, scale 0 to 100, read-out: Plant response rating, Cupgrass, Woolly): 0%
- pest or weed control at 125 g/ha ([5]; Eriochloa villosa, pre-emergence, 312 h, scale 0 (no effect) to 100 (complete control), visual, 12 to 14 days, read-out: Plant response rating, Cupgrass, Woolly): 10%
- pest or weed control at 250 g/ha ([5]; Eriochloa villosa, pre-emergence, 312 h, scale 0 to 100 (0 no effect, 100 complete control), visual, 12 to 14 days, read-out: Plant response rating, Cupgrass, Woolly): 10%
- Plant response rating (0 = no effect, 100 = complete control), Foxtail, Giant ([6]; 62 g ai/ha, preemergence): 10
- pest or weed control at 250 g/ha ([6]; Setaria faberi, post-emergence, 312 h, Postemergence, scale 0 to 100, 0 no effect, 100 complete control, read-out: Plant response rating, Foxtail, Giant): 80%
- pest or weed control at 125 g/ha ([6]; Setaria faberi, post-emergence, 312 h, postemergence, scale 0 to 100, read-out: Plant response rating, Foxtail, Giant): 80%
- pest or weed control at 62 g/ha ([6]; Setaria faberi, post-emergence, 312 h, postemergence, 62 g ai/ha, scale 0 to 100, read-out: Plant response rating, Foxtail, Giant): 70%
- pest or weed control at 31 g/ha ([6]; Setaria faberi, pre-emergence, 312 h, 31 g ai/ha, preemergence, scale 0 to 100, read-out: Plant response rating, Foxtail, Giant): 10%
- pest or weed control at 125 g/ha ([6]; Setaria faberi, pre-emergence, 312 h, scale 0 (no effect) to 100 (complete control), visual, 12 to 14 days, read-out: Plant response rating, Foxtail, Giant): 40%
- pest or weed control at 250 g/ha ([6]; Setaria faberi, pre-emergence, 312 h, scale 0 to 100 (0 no effect, 100 complete control), visual, 12 to 14 days, read-out: Plant response rating, Foxtail, Giant): 50%
- Plant response rating (0 = no effect, 100 = complete control), Goosegrass ([7]; 62 g ai/ha, preemergence): 10
- pest or weed control at 250 g/ha ([7]; Eleusine indica, post-emergence, 312 h, Postemergence, 250 g ai/ha, scale 0 to 100, 0 no effect, 100 complete control, read-out: Plant response rating, Goosegrass): 80%
- pest or weed control at 125 g/ha ([7]; Eleusine indica, post-emergence, 312 h, postemergence, scale 0 to 100, read-out: Plant response rating, Goosegrass): 80%
- pest or weed control at 62 g/ha ([7]; Eleusine indica, post-emergence, 312 h, postemergence, 62 g ai/ha, scale 0 to 100, read-out: Plant response rating, Goosegrass): 80%
- pest or weed control at 31 g/ha ([7]; Eleusine indica, pre-emergence, 312 h, 31 g ai/ha, preemergence, scale 0 to 100, read-out: Plant response rating, Goosegrass): 10%
- pest or weed control at 125 g/ha ([7]; Eleusine indica, pre-emergence, 312 h, scale 0 (no effect) to 100 (complete control), visual, 12 to 14 days, read-out: Plant response rating, Goosegrass): 10%
- Plant response rating (0 = no effect, 100 = complete control), Ragweed ([8]; 62 g ai/ha, preemergence): 0
- pest or weed control at 250 g/ha ([8]; Ambrosia artemisiifolia, post-emergence, Postemergence, 250 g ai/ha, scale 0 to 100, 0 no effect, 100 complete control, read-out: Plant response rating, Ragweed): 70%
- pest or weed control at 125 g/ha ([8]; Ambrosia artemisiifolia, post-emergence, postemergence, scale 0 to 100, read-out: Plant response rating, Ragweed): 70%
- pest or weed control at 62 g/ha ([8]; Ambrosia artemisiifolia, post-emergence, postemergence, 62 g ai/ha, scale 0 to 100, read-out: Plant response rating, Ragweed): 70%
- pest or weed control at 31 g/ha ([8]; Ambrosia artemisiifolia, pre-emergence, 31 g ai/ha, preemergence, scale 0 to 100, read-out: Plant response rating, Ragweed): 0%
- pest or weed control at 125 g/ha ([8]; Ambrosia artemisiifolia, pre-emergence, scale 0 (no effect) to 100 (complete control), visual, 12 to 14 days, read-out: Plant response rating, Ragweed): 0%
- pest or weed control at 31 g/ha ([9]; 31 g ai/ha, preemergence, scale 0 to 100): 0%
- pest or weed control at 125 g/ha ([9]; 125 g ai/ha, scale 0 (no effect) to 100 (complete control), visual, 12 to 14 days): 0%
- pest or weed control at 62 g/ha ([10]; 62 g ai/ha, scale 0 to 100 (0 no effect, 100 complete control), read-out: Sedge, Umbrella plant response rating): 70%
- pest or weed control at 125 g/ha ([10]; 125 g ai/ha, scale of 0 to 100, 0 is no effect, 100 is complete control, read-out: Sedge, Umbrella plant response rating): 70%
- pest or weed control at 250 g/ha ([10]; 250 g ai/ha, scale of 0 to 100, 0 is no effect, 100 is complete control, read-out: Sedge, Umbrella plant response rating): 70%
- pest or weed control at 500 g/ha ([10]; 500 g ai/ha, visual rating after 12 to 14 days, scale 0 to 100 (0 no effect, 100 complete control), read-out: Plant response rating, Sedge, Umbrella): 70%
